Assay [1] concerns HEp-2 cells. The assay can be described thus: Competitive inhibition of HEp-2 cell attachment to (SPKR)4inv coated wells. Format: cell-based, human. Conditions: wells coated with (SPKR)4inv. The method, then:
(§1) Cells were harvested with trypsin-EDTA and resuspended in medium containing soybean trypsin inhibitor. After centrifugation, the cell pellet was resuspended in medium containing 20 mM HEPES pH 7.5, 4 g/l BSA. For inhibition studies, 3×10^4 cells were incubated with increasing concentrations of SPKR4-inv protein for 30 min at 22° C.

The test system of assay [2] is HEp-2 cells. Put plainly: Competitive inhibition of HEp-2 cell attachment to fibronectin coated wells. Type of assay: cell-based, human. The method, then: as §1

As to “A3β1: Recombinant soluble α3β1 integrin (Eble, 1998)”, in assay [1], the “ID30 (concentration of competitor that results in 30% inhibition of cell attachment)” value is 0.050 µM.
As to RGDS, the “ID30 compared with (SPKR)4inv” value in assay [2] (fibronectin coated wells) is given as “three orders of magnitude higher”. For the same substance, the “ID30 (concentration of competitor that results in 30% inhibition of cell attachment)” value in assay [2] (wells coated with fibronectin) and in assay [1] was 170 µM in each case.

The values are drawn from patent US20040019188A1, “Targeting through integrins” (priority 2000, published 2004).
